Assay results as given in US20200405697A1, “Antitumor Agent” (Taiho Pharmaceutical Co., Ltd, priority 2017, published 2020).

Tested on: CFPAC-1 (Human pancreatic cancer cell line)
Experiment: Effect of combination of sulfonamide compound and other antitumor agent (CellTiter-Glo, combination index): CFPAC-1;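 also: cells exposed to both agents together for 3 days, viability read by luminescence, normalized to vehicle-treated control wells, mean of triplicate wells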
[1] = Example Compound 1 225 nM + Prexasertib 1.89 nM, molar ratio 1:0.008406
[2] = Example Compound 1 338 nM + AZD6738 925 nM, molar ratio 1:2.738
[3] = Example Compound 1 338 nM + Prexasertib 2.84 nM, molar ratio 1:0.008406
[4] = Example Compound 1 338 nM + SCH900776 253 nM, molar ratio 1:0.7487
[5] = Example Compound 1 507 nM + AZD6738 1390 nM, molar ratio 1:2.738
[6] = Example Compound 1 507 nM + Prexasertib 4.26 nM, molar ratio 1:0.008406
[7] = Example Compound 1 507 nM + SCH900776 380 nM, molar ratio 1:0.7487
[8] = Example Compound 1 760 nM + AZD6738 2080 nM, molar ratio 1:2.738
[9] = Example Compound 1 760 nM + Gemcitabine 5.28 nM, molar ratio 1:0.006950
[10] = Example Compound 1 760 nM + SCH900776 569 nM, molar ratio 1:0.7487

Description: Each cell line was seeded at 90 L/well to a 96-well culture plate (Thermo Fisher Scientific, Inc.) according to the above tables. The cell-seeded plate was cultured in an incubator set to 37° C. and 500 CO2. On the day following seeding, varying concentrations of the sulfonamide compound and the other antitumor agent were added in combination to the cells. […] The serial dilutions of each compound, or DW was added at 5μL/well to the plate such that each compound and DW, or the sulfonamide compound and the other antitumor agent were combined. […] The plate after the addition was cultured at 37° C. for 3 days under 5% CO2 conditions.
Three days later, CellTiter-Glo(R) 2.0 Reagent (Promega Corporation) was added at 100 μL/well, and the amount of luminescence was measured using a plate reader EnSpire(R) Multimode Plate Reader (PerkinElmer Co., Ltd.).
An average value from 3 wells was calculated as to each drug condition from the obtained data, and cell survival rate normalized against control wells supplemented with the vehicle (DW) was calculated. A Fa (fractional inhibition) value was calculated by subtracting the cell survival rate from 1.

Molecule `Cc1ccc(F)c([C@@H](C)[C@H](NS(=O)(=O)c2ccc(Br)cc2C(N)=O)c2n[nH]c(=O)o2)c1C` [Example 1, 5-bromo-2-(N-((1 S,2R)-2-(6-fluoro-2,3-dimethylphenyl)-1-(5-oxo-4,5-dihydro-1,3,4-oxadiazol-2-yl)propyl)sulfamoyl)benzamide] has a CI value [1] of 0.825, a Fa value [1] of 0.2319 and a CI value [2] of 0.484. It also gave a Fa value [2] of 0.4791, a CI value [3] of 0.580 and a Fa value [3] of 0.6056. The CI value [4] was 0.496, the Fa value [4] was 0.4162 and the CI value [5] was 0.356. It also gave a Fa value [5] of 0.7266, a CI value [6] of 0.633 and a Fa value [6] of 0.7542. It also gave a CI value [7] of 0.369, a Fa value [7] of 0.6944 and a CI value [8] of 0.427. It also gave a Fa value [8] of 0.7884, a CI value [9] of 0.790 and a Fa value [9] of 0.6416. For the same molecule, the CI value [10] was 0.472 and the Fa value [10] was 0.7479.
